Patent US12419307B2, “Mixtures comprising indazole pesticides” (FMC Corporation, priority 2019, dated 2025)

Key:
Type in all cases: in vivo
[1] = tested on: Western Flower Thrips (Frankliniella occidentalis Pergande); experiment: Test B: Western Flower Thrips control on bean plants, plant damage rating converted to % plant protection after 7 days; details: for Plant Damage (obs): Table 3a, applied alone
Experimental: (§1) The pest control protection afforded by the mixtures or compositions is not limited, however, to these species. The analysis of enhanced activity between the mixtures or compositions was determined using Colby's equation. The average % mortality data for the test compounds alone were inserted into the Colby's equation. If the observed (obs) average % mortality was higher than “p”, the expected (exp) % mortality, the mixture or composition had enhanced effects. If the observed average % mortality was equal to or lower than the expected mortality, the mixture or composition either had no enhanced effect. For bioassays where insect feeding damage was evaluated, enhanced activity is identified when the observed plant damage is less than the expected plant damage rating; ratings ranged between 0 (no damage) and 10 (dead plant) and each value was converted to a % plant protection. 100−(Obs Plant Damage*10)
Thus, a plant given a plant damage rating of 3 out of 10 is equivalent to 70% plant protection In all of these tests, compounds of Formula I are Compounds 1 (Cpd 1), 2 (Cpd2), and 3 (Cpd3) and compounds of Formula II are compounds 4 (Cpd4) and 5 (Cpd 5).
For evaluating control of the Western Flower Thrips (Frankliniella occidentalis Pergande) through contact and/or systemic means, each test unit consisted of a small open container with a 5- to 7-day-old bean (var. Soleil) plant inside.
Test solutions were formulated and sprayed with 3 replications as described for Test A. After spraying, the test units were allowed to dry for 1 hour, 22 to 27 adult thrips were added to each unit and then a black, screened cap was placed on top. The test units were held for 7 days at 25° C. and 45-55% relative humidity. To evaluate the level of plant protection provided by each treatment, each test unit was then visually assessed for plant damage inflicted by insect feeding and rated 0-10, where 0=undamaged and 10=plant is dead; the results are listed in Tables 3a-g.

[2] = tested on: silverleaf whitefly (Bemisia argentifolii Bellows and Perring); experiment: Test A: silverleaf whitefly control on cotton or soybean plants, spray, insect mortality after 13 days; details: Bemisia argentifolii, read-out: % Mortality (obs)
Experimental: as §1
For evaluating control of silverleaf whitefly (Bemisia argentifolii Bellows and Perring) through contact and/or systemic means, each test unit consisted of a small open container with a 12- to 14-day-old cotton plant or 5-7 day old soybean plant inside. This was pre-infested by placing test units into cages containing adult whiteflies so that oviposition on the cotton leaves could occur. The adults were removed from the plants with an air-blast nozzle, and the test units were capped. The test units were then stored 2 to 3 days before spraying.
Test compounds were formulated using a solution containing 10% acetone, 90% water and 300 ppm Activator 90@ Spreader Lo-Foam Formula non-ionic surfactant containing alkylarylpolyoxyethylene, free fatty acids, glycols and 2-propanol (Loveland Industries, Inc.) to provide the desired concentration in ppm. Formulated test solutions were then applied in 1 mL volumes through a SUJ2 atomizer nozzle with ⅛ JJ custom body (Spraying Systems Co.) positioned 1.27 cm (0.5 inches) above the top of each test unit.
The results for all experimental compositions in this test were replicated three times. After spraying of the formulated test composition, each test unit was allowed to dry for 1 hour and the cap removed. The test units were held for 13 days in a growth chamber at 28° C. and 50-70% relative humidity.

[3] = tested on: cotton melon aphid (Aphis gossypii Glover); experiment: Test D: cotton melon aphid control on okra plants, insect mortality after 6 days; details: Aphis gossypii, read-out: % Mortality (obs)
Experimental: The analysis of enhanced activity between the mixtures or compositions was determined using Colby's equation. The average % mortality data for the test compounds alone were inserted into the Colby's equation. If the observed (obs) average % mortality was higher than “p”, the expected (exp) % mortality, the mixture or composition had enhanced effects. If the observed average % mortality was equal to or lower than the expected mortality, the mixture or composition either had no enhanced effect. For bioassays where insect feeding damage was evaluated, enhanced activity is identified when the observed plant damage is less than the expected plant damage rating; ratings ranged between 0 (no damage) and 10 (dead plant) and each value was converted to a % plant protection. 100−(Obs Plant Damage*10)
For evaluating control of cotton melon aphid (Aphis gossypii Glover) through contact and/or systemic means, each test unit consisted of a small open container with a 6- to 7-day-old okra plant inside. This was pre-infested by placing on a leaf of the test plant 30 to 40 aphids on a piece of leaf excised from a culture plant (cut-leaf method). The […] moved onto the test plant as the leaf piece desiccated. After pre-infestation, the soil of the test unit was covered with a layer of sand.
Test compounds were formulated and sprayed as described for Test A. The applications were replicated three times. After spraying of the formulated test compounds, each test unit was allowed to dry for 1 hour and then a black, screened cap was placed on top. […]

[4] = tested on: diamondback moth (Plutella xylostella L.); experiment: Test E: diamondback moth control on mustard plants, contact and/or systemic, plant damage rating after 6 days
Experimental: as §1
For evaluating control of diamondback moth (Plutella xylostella L.) through contact and/or systemic means, each test unit consisted of a small open container with a 10- to 12-day-old mustard plant inside. Test compounds were formulated and sprayed with 3 replications as described for Test A. After spraying, the test units were allowed to dry for 1 hour before they were infested with 30-50 neonate larvae. A black, screened cap was placed on the top of each container. The test units were held for 6 days in a growth chamber at 24-25° C. and 70% relative humidity. Each test unit was then visually assessed for plant damage and rated 0-10, where 0=undamaged and 10=plant is dead; the results are listed in Tables 6a-b.

[5] = tested on: Potato Leafhopper (Empoasca fabae Harris); experiment: Test C: Potato Leafhopper control on bean plants, insect mortality after 6 days; details: read-out: % Mortality (obs)
Experimental: as §1
For evaluating control of Potato Leafhopper (Empoasca fabae Harris) through contact and/or systemic means, each test unit consisted of a small open container with a 5- to 6-day-old Longio bean plant (primary leaves emerged) inside. White sand was added to the top of the soil, and one of the primary leaves was excised prior to application. Test compounds were formulated and sprayed with 3 replications as described for Test A. After spraying, the test units were allowed to dry for 1 hour before they were infested with 5 potato leafhoppers (18- to 21-day-old adults). A black, screened cap was placed on the top of each container. The test units were held for 6 days in a growth chamber at 19-21° C. and 50-70% relative humidity.

`CNC(=O)c1cc(C#N)cc(C)c1NC(=O)c1cc(Br)nn1-c1ncccc1Cl` [Cyantraniliprole, 3-bromo-1-(3-chloro-2-pyridinyl)-N-[4-cyano-2-methyl-6-[(methylamino)carbonyl]phenyl]-1H-pyrazole-5-carboxamide, reference compound] was tested, and the “Plant Damage (obs)” value ([1]; 0.08 ppm) was 6.7%, the “Plant Damage (obs)” value ([1]; 0.28 ppm) was 43.3% and the mortality at 3 ppm [2] was 29.1%. The mortality at 5.5 ppm [2] was 61.1%, the mortality at 0.06 ppm [3] was 21.1% and the mortality at 0.12 ppm [3] was 45.1%. For the same molecule, the “Plant Protection (obs)” value ([4]; Table 6a, 0.013 ppm) was 73.3, the “Plant Protection (obs)” value ([4]; Table 6a, 0.02 ppm) was 20.0 and the mortality at 1.75 ppm [5] was 13.3%. For the same molecule, the mortality at 3.3 ppm [5] was 28.6%.

With `CCOC(=O)OC1=C(c2cc(C)ccc2C)C(=O)N[C@]12CC[C@@H](OC)CC2` [Spirotetramat, spirotetramat, reference compound] the pest or weed control at 100 ppm ([1]; Frankliniella occidentalis, 168 h, Table 3d, 100 ppm, read-out: Plant Protection (obs)) was 53.3%, the pest or weed control at 250 ppm ([1]; Frankliniella occidentalis, 168 h, Table 3d, 250 ppm, read-out: Plant Protection (obs)) was 73.3% and the mortality at 50 ppm [2] was 2.1%. It also gave a mortality at 250 ppm [2] of 34.4%, a mortality at 0.25 ppm ([3]; 120 h) of 21.1% and a mortality at 0.85 ppm ([3]; 120 h) of 45.1%. For the same molecule, the “Plant Protection (obs)” value ([4]; Table 6b, 83.2 ppm) was 73.3, the “Plant Protection (obs)” value ([4]; Table 6b, 150 ppm) was 80.0 and the mortality at 50 ppm [5] was 28.6%. For the same molecule, the mortality at 250 ppm [5] was 73.3%.
